The subject of this assay is PMA-differentiated THP-1 cells. Briefly: hTHP-1 assay containing 10% fetal bovine serum (IL-1β production, Tables B5 and B6). Format: cell-based, human. As to the method:
The following protocol is suitable for testing the activity of the compounds disclosed herein. Procedure 1: IL-1β Production in PMA-Differentiated THP-1 Cells Stimulated with Gramicidin.
THP-1 cells were purchased from the American Type Culture Collection and sub-cultured according to instructions from the supplier. Cells were cultured in complete RPMI 1640 (containing 10% heat inactivated FBS, penicillin (100 units/ml) and streptomycin (100 μg/ml)), and maintained in log phase prior to experimental setup. Prior to the experiment, compounds were dissolved in dimethyl sulfoxide (DMSO) to generate a 30 mM stock. The compound stock was first pre-diluted in DMSO to 3, 0.34, 0.042 and 0.0083 mM intermediate concentrations and subsequently spotted using Echo550 liquid handler into an empty 384-well assay plate to achieve desired final concentration (e.g. 100, 33, 11, 3.7, 1.2, 0.41, 0.14, 0.046, 0.015, 0.0051, 0.0017 μM). DMSO was backfilled in the plate to achieve a final DMSO assay concentration of 0.37%. The plate was then sealed and stored at room temperature until required.
THP-1 cells were treated with PMA (Phorbol 12-myristate 13-acetate) (20 ng/ml) for 16-18 hours. On the day of the experiment the media was removed and adherent cells were detached with trypsin for 5 minutes. […] The cells were plated in the 384-well assay plate containing the spotted compounds at a density of 50,000 cells/well (final assay volume 50 μl). Cells were incubated with compounds for 1 hour and then stimulated with gramicidin (5 μM) (Enzo) for 2 hours. Plates were then centrifuged at 340 g for 5 min. Cell free supernatant (40 μL) was collected using a 96—CHannel PlateMaster (Gilson) and the production of IL-1β was evaluated by HTRF (cisbio). The plates were incubated for 18 h at 4° C. and read using the preset HTRF program (donor emission at 620 nm, acceptor emission at 668 nm) of the SpectraMax i3x spectrophotometer (Molecular Devices, software SoftMax 6). A vehicle only control and a dose titration of CRID3 (100-0.0017 μM) were run concurrently with each experiment.
Procedure 2: IL-1β Production in PMA-Differentiated THP-1 Cells Stimulated with Gramicidin.
THP-1 cells were purchased from the American Type Culture Collection and sub-cultured according to instructions from the supplier. Prior to experiments, cells were cultured in complete RPMI 1640 (containing 10% heat inactivated FBS, penicillin (100 units/ml) and streptomycin (100 μg/ml)), and maintained in log phase prior to experimental setup. Prior to the experiment THP-1 were treated with PMA (Phorbol 12-myristate 13-acetate) (20 ng/ml) for 16-18 hours. Compounds were dissolved in dimethyl sulfoxide (DMSO) to generate a 30mM stock. On the day of the experiment the media was removed and adherent cells were detached with trypsin for 5 minutes. […] The cells were plated in a 384-well plate at a density of 50,000 cells/well (final assay volume […]). Compounds were first dissolved in assay medium to obtain a 5× top concentration of 500 μM. 10 step dilutions (1:3) were then undertaken in assay medium containing 1.67% DMSO. 5× compound solutions were added to the culture medium to achieve desired final concentration (e.g. 100, 33, 11, 3.7, 1.2, 0.41, 0.14, 0.046, 0.015, 0.0051, 0.0017 μM). Final DMSO concentration was at 0.37%. Cells were incubated with compounds for 1 hour and then stimulated with gramicidin (5 μM) (Enzo) for 2 hours. Plates were then centrifuged at 340 g for 5 min. Cell free supernatant (40 μL) was collected using a 96—CHannel PlateMaster (Gilson) and the production of IL-1β was evaluated by HTRF (cisbio). A vehicle only control and a dose titration of CRID3 (100-0.0017 μM) were run concurrently with each experiment.
Tables B1, B2, B3, and B4 show the biological activity of compounds in hTHP-1 assay containing 2% fetal bovine serum. […] Key: <0.008 μM=“++++++”; ≥0.008 and <0.04 μM=“+++++”; >0.04 and <0.2 μM=“++++”; ≥0.2 and <1 μM=“+++”; ≥1 and <5 μM=“++”; ≥5 and <30 μM=“+”. […]

[1] abbreviates: Homo sapiens, THP-1, read-out: hTHP-1 IC50 in 10% FBS, hTHP-1 assay containing 10% fetal bovine serum, Table B5.

Structures are written as SMILES. Read-outs that look alike come from different tables or passages of the source.

As usually defined, the IC50 is the concentration that inhibits the measured activity by half. In the case of `C[C@@H]1CCc2c1nc1c(c2NC(=O)N=S(N)(=O)c2nn(C(C)(F)F)cc2F)CCC1` (single isomer, unassigned) [Compound 1117a, (R) or (S)-1-(1,1-difluoroethyl)-4-fluoro-N′-(((R)-3-methyl-1,2,3,5,6,7-hexahydrodicyclopenta[b,e]pyridin-8-yl)carbamoyl)-1H-pyrazole-3-sulfonimidamide], where the note is “read-out: hTHP-1 IC50 in 10% FBS, hTHP-1 assay containing 10% fetal bovine serum, Table B5, listed as 850”, the 50% inhibitory concentration (IC50) was in the range of 8 to 40 nM.
As to `Cc1nc2c(c(NC(=O)N=S(N)(=O)c3scc(C(C)(C)O)c3F)c1-c1ccccc1)CCC2` (single isomer, unassigned) [Compound 1110b, (R) or (S)-3-fluoro-4-(2-hydroxypropan-2-yl)-N′-((2-methyl-3-phenyl-6,7-dihydro-5H-cyclopenta[b]pyridin-4-yl)carbamoyl)thiophene-2-sulfonimidamide], the IC50 (read-out: hTHP-1 IC50 in 10% FBS, hTHP-1 assay containing 10% fetal bovine serum, Table B5, listed as 845) was below 8 nM.
Consider `Cc1c(C(F)(F)F)nc2c(c1NC(=O)N=S(N)(=O)c1scc(C(C)(C)O)c1F)CCC2` (stereo not drawn) [Compound 1108, 3-Fluoro-4-(2-hydroxy-propan-2-yl)-N′-((3-methyl-2-(trifluoromethyl)-6,7-dihydro-5H-cyclopenta[b]pyridin-4-yl)carbamoyl)thiophene-2-sulfonimidamide], for which the IC50 under setting [1] was 40 to 200 nM.
Turning to `Cc1c(C(F)(F)F)nc2c(c1NC(=O)N=S(N)(=O)c1cnc(C(F)(F)F)s1)CCC2` (stereo not drawn) [Compound 1118, N′-((3-methyl-2-(trifluoromethyl)-6,7-dihydro-5H-cyclopenta [b]pyridin-4-yl)carbamoyl)-2-(trifluoromethyl) thiazole-5-sulfonimidamide], the IC50 under setting [1] fell in the range of 5000 to 30000 nM.
`CCn1cc(F)c(S(N)(=O)=NC(=O)Nc2c3c(nc(C)c2C(F)(F)F)CCC3)n1` (single isomer, unassigned) [Compound 1116b, (S) or (R)-1-ethyl-4-fluoro-N′-((2-methyl-3-(trifluoromethyl)-6,7-dihydro-5H-cyclopenta[b]pyridin-4-yl)carbamoyl)-1H-pyrazole-3-sulfonimidamide]: the 50% inhibitory concentration (IC50) (read-out: hTHP-1 IC50 in 10% FBS, hTHP-1 assay containing 10% fetal bovine serum, Table B5, listed as 849) fell in the range of 1000 to 5000 nM.
`CC(C)(O)c1csc(S(N)(=O)=NC(=O)Nc2c3c(nc4c2CCC4)CCC3)c1F` (stereo not drawn) [Compound 1107, 3-Fluoro-N′-((1,2,3,5,6,7-hexahydrodicyclopenta [b,e]pyridin-8-yl)carbamoyl)-4-(2-hydroxypropan-2-yl)thiophene-2-sulfonimidamide]: the half-maximal inhibitory concentration (IC50) under setting [1] lay within 40 to 200 nM.
As to `Cc1c(C(F)(F)F)nc2c(c1NC(=O)N=S(N)(=O)c1scc(C(C)(C)O)c1F)CCC2` (single isomer, unassigned) [Compound 1108a, (R) or (S)-3-fluoro-4-(2-hydroxypropan-2-yl)-N′-((3-methyl-2-(trifluoromethyl)-6,7-dihydro-5H-cyclopenta[b]pyridin-4-yl)carbamoyl)thiophene-2-sulfonimidamide], the half-maximal inhibitory concentration (IC50) (read-out: hTHP-1 IC50 in 10% FBS, hTHP-1 assay containing 10% fetal bovine serum, Table B5, listed as 840) was in the range of 40 to 200 nM.
Take `C[C@@H]1CCc2c1nc1c(c2NC(=O)N=S(N)(=O)c2nn(C(C)(F)F)cc2F)CCC1` (single isomer, unassigned) [Compound 1117b, (S) or (R)-1-(1,1-difluoroethyl)-4-fluoro-N′-(((R)-3-methyl-1,2,3,5,6,7-hexahydrodicyclopenta[b,e]pyridin-8-yl)carbamoyl)-1H-pyrazole-3-sulfonimidamide]: where the note is “read-out: hTHP-1 IC50 in 10% FBS, hTHP-1 assay containing 10% fetal bovine serum, Table B5, listed as 851”, the half-maximal inhibitory concentration (IC50) was 200 to 1000 nM.
As for `CC(C)(O)c1csc(S(N)(=O)=NC(=O)Nc2c3c(nc(C(F)(F)F)c2C2CC2)CCC3)c1F` (single isomer, unassigned) [Compound 1105a, (R) or (S)-N′-((3-cyclopropyl-2-(trifluoromethyl)-6,7-dihydro-5H-cyclopenta[b]pyridin-4-yl)carbamoyl)-3-fluoro-4-(2-hydroxypropan-2-yl)thiophene-2-sulfonimidamide], where the note is “read-out: hTHP-1 IC50 in 10% FBS, hTHP-1 assay containing 10% fetal bovine serum, Table B5, listed as 834”, the concentration for half-maximal inhibition (IC50) is 40 to 200 nM.
As to `C[C@@H]1CCc2c1nc1c(c2NC(=O)N=S(N)(=O)c2nn(C(C)(F)F)cc2F)CCC1` (stereo partly drawn) [Compound 1111, 1-(1,1-Difluoroethyl)-4-fluoro-N′-(((R)-3-methyl-1,2,3,5,6,7-hexahydrodicyclopenta [b,e]pyridin-8-yl)carbamoyl)-1H-pyrazole-3-sulfonimidamide], under setting [1], the IC50 is 8 to 40 nM.
Take `CCn1cc(F)c(S(N)(=O)=NC(=O)Nc2c3c(nc(C)c2C(F)(F)F)CCC3)n1` (single isomer, unassigned) [Compound 1116a, (R) or (S)-1-ethyl-4-fluoro-N′-((2-methyl-3-(trifluoromethyl)-6,7-dihydro-5H-cyclopenta[b]pyridin-4-yl)carbamoyl)-1H-pyrazole-3-sulfonimidamide]: under “read-out: hTHP-1 IC50 in 10% FBS, hTHP-1 assay containing 10% fetal bovine serum, Table B5, listed as 848”, the IC50 fell in the range of 8 to 40 nM.
Consider `CC(C)n1cc(F)c(S(N)(=O)=NC(=O)Nc2c3c(nc(C(F)(F)F)c2C2CC2)CCC3)n1` (single isomer, unassigned) [Compound 1104a, (R) or (S)-N′-((3-cyclopropyl-2-(trifluoromethyl)-6,7-dihydro-5H-cyclopenta[b]pyridin-4-yl)carbamoyl)-4-fluoro-1-isopropyl-1H-pyrazole-3-sulfonimidamide], for which the IC50 (read-out: hTHP-1 IC50 in 10% FBS, hTHP-1 assay containing 10% fetal bovine serum, Table B5, listed as 826) lay in the range of 40 to 200 nM.
As to `NS(=O)(=NC(=O)Nc1c2c(nc3c1CCC31CC1)CCC2)c1nn(C2CC2)cc1F` (single isomer, unassigned) [Example 865, (R) or (S)-1-cyclopropyl-4-fluoro-N′-((1′,5′,6′,7′-tetrahydro-2′H-spiro[cyclopropan-1,3′-dicyclopenta[b,e]pyridin]-8′-yl)carbamoyl)-1H-pyrazole-3-sulfonimidamide], the concentration for half-maximal inhibition (IC50) (Homo sapiens, THP-1, read-out: hTHP-1 IC50 in 10% FBS, hTHP-1 assay containing 10% fetal bovine serum, Table B6) was in the range of 40 to 200 nM.
In the case of `Cc1c(C(F)(F)F)nc2c(c1NC(=O)N=S(N)(=O)c1nn(C(C)(F)F)cc1F)CCC2` (single isomer, unassigned) [Compound 1004b, (S) or (R)-1-(1,1-Difluoroethyl)-4-fluoro-N′-((3-methyl-2-(trifluoromethyl)-6,7-dihydro-5H-cyclopenta[b]pyridin-4-yl)carbamoyl)-1H-pyrazole-3-sulfonimidamide], under “read-out: hTHP-1 IC50 in 10% FBS, hTHP-1 assay containing 10% fetal bovine serum, Table B5, listed as 833”, the IC50 fell in the range of 1000 to 5000 nM.
Consider `NS(=O)(=NC(=O)Nc1c2c(nc3c1CCC31CC1)CCC2)c1nn(C2CC2)cc1F` (single isomer, unassigned) [Example 866, (S) or (R)-1-cyclopropyl-4-fluoro-N′-((1′,5′,6′,7′-tetrahydro-2′H-spiro[cyclopropan-1,3′-dicyclopenta[b,e]pyridin]-8′-yl)carbamoyl)-1H-pyrazole-3-sulfonimidamide], for which the IC50 (read-out: hTHP-1 IC50 in 10% FBS, hTHP-1 assay containing 10% fetal bovine serum, Table B6) was 40 to 200 nM.
